Data published in US8686024B2, “Indoline derivatives” (priority 2009, dated 2014).
Where two headings read alike, the source gives them in different places.

What was measured:
[1] = target: T1, butyrylcholine esterase (BuChE) (Mus musculus, UniProt Q03311); experiment: In vitro assay for choline esterase inhibition (Ellman method), butyrylthiocholine substrate, mouse serum; assay type: biochemical; conditions: for Ratio AChE/BuChE: selectivity for BuChE inhibition: IC50 (AchE)/IC50 (BuChE); for selectivity to butyrylcholinesterase (BuChE versus AChE inhibitory activity), in words: summary of Tables 1-3
T1 construct: brain homogenate and serum of mouse were used as choline esterase enzyme sources; from tissue; host or cells: mouse serum
Description: (§1) For measurement of esterase activity, brain homogenate and serum of mouse were used as choline esterase enzyme sources, and the method of Ellman et. al (Biochemical pharmacology 7: 88-95 1961) were referred. Compound of each example were diluted in dimethylsulfoxide.
(§2) In detail, acetylthiocholine or butyrylthiocholine as substrates, test compounds, and DNTB [[…]] were added to the mouse brain homogenate or serum, respectively.
(§3) After incubation, thiocholine was produced by enzyme reaction in the mixture, and then, the yellow product was formed by the reaction of thiocholine and DTNB. The activity of acetylcholine esterase (AChE) or butyrylcholine esterase (BuChE) was evaluated by determination of absorbance at 415 nm. […] And the selectivity for BuChE inhibition of each compound was calculated by the ratio: IC50 (AchE)/IC50 (BuChE).

[2] = target: T2, acetylcholine esterase (AChE) (Mus musculus, UniProt P21836); experiment: In vitro assay for choline esterase inhibition (Ellman method), acetylthiocholine substrate, mouse brain homogenate; assay type: biochemical
T2 construct: brain homogenate and serum of mouse were used as choline esterase enzyme sources; from tissue; host or cells: mouse brain homogenate
T2 sequence (P21836 32-614): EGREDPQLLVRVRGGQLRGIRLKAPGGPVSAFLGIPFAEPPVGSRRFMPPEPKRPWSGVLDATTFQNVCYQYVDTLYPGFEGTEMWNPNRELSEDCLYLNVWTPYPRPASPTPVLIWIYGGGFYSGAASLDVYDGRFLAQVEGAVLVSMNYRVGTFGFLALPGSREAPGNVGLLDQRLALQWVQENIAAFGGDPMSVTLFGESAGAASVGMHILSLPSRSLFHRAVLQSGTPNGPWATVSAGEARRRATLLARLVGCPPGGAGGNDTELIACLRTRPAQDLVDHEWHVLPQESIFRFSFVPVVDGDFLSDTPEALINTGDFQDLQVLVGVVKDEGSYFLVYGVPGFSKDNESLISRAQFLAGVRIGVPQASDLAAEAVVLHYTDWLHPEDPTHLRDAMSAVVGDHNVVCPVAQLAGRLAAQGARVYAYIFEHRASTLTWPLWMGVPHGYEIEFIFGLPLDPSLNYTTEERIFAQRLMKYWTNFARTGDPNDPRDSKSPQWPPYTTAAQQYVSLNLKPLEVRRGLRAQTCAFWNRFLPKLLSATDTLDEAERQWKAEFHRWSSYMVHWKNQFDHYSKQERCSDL
Description: as §1, §2, §3

[3] = mouse serum, butyrylthiocholine, absorbance at 415 nm, read-out: BuChE inhibitory activity IC50
[4] = mouse brain homogenate, acetylthiocholine, absorbance at 415 nm, read-out: AChE inhibitory activity IC50

T1 sequence (Q03311 30-603): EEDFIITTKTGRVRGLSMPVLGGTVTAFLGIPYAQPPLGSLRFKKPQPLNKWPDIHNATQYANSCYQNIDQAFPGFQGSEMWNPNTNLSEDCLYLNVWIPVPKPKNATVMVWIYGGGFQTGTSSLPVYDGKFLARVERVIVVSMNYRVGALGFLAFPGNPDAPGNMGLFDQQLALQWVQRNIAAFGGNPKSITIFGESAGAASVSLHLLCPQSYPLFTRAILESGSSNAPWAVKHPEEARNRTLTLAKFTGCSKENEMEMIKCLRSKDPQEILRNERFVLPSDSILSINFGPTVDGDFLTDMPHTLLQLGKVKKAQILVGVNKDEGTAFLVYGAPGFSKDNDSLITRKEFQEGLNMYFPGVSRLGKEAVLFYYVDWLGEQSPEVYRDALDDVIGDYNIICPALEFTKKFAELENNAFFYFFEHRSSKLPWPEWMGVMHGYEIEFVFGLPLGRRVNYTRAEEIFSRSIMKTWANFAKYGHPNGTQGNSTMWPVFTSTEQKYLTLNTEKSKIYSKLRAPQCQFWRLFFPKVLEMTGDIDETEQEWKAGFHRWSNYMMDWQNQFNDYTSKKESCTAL

Structure (SMILES) | IC50 [1, 3] | Ratio AChE/BuChE [1] | selectivity to butyrylcholinesterase (BuChE versus AChE inhibitory activity), in words [1] | IC50 [2, 4] | IC50 [1] | IC50 [2]
COc1ccc(CNC(=O)Oc2ccc3c(c2)CCN3Cc2ccccc2)cc1 [Example 31, 1-benzylindolin-5-yl 4-methoxybenzylcarbamate] | 17 nM | 240 | much higher | 4100 nM |  | 
CCC(COC)NC(=O)Oc1ccc2c(c1)CCN2Cc1ccccc1 (centres unmarked) [Example 46, 1-benzylindolin-5-yl 1-methoxybutan-2-ylcarbamate] |  | >670 |  |  | 150 nM | > 100000 nM
COC1C=CC(CNC(=O)Oc2ccc3c(c2)CCN3Cc2ccccc2)(OC)O1 (centres unmarked) [Example 122, 1-benzylindolin-5-yl (2,5-dihydro-2,5-dimethoxyfuran-2-yl)methylcarbamate] |  | >210 |  |  | 480 nM | > 100000 nM
O=C(NC1CCCc2ccccc21)Oc1ccc2c(c1)CCN2Cc1ccccc1 (centres unmarked) [Example 96, 1-benzylindolin-5-yl-1,2,3,4-tetrahydronaphthalen-1-ylcarbamate] | 17 nM | >5900 | much higher | > 100000 nM |  | 
CCCCCC(C)NC(=O)Oc1ccc2c(c1)CCN2Cc1ccccc1 (centres unmarked) [Example 50, 1-benzylindolin-5-yl 2-heptylcarbamate] |  | >1900 | much higher |  | 53 nM | > 100000 nM
O=C(NC1CCCCC1)Oc1ccc2c(c1)CCN2Cc1ccccn1 [Example 149, 1-(2-pyridylmethyl)indolin-5-yl cyclohexylcarbamate] | 58 nM | 38 |  | 2200 nM |  | 
O=C(NCc1ccco1)Oc1ccc2c(c1)CCN2Cc1ccccc1 [Example 18, 1-benzylindolin-5-yl furfurylcarbamate] | 38 nM | 47 |  | 1800 nM |  | 
CN(C)CCCNC(=O)Oc1ccc2c(c1)CCN2Cc1ccccc1 [Example 137, 1-benzylindolin-5-yl 3-(dimethylamino)propylcarbamate] |  | >560 |  |  | 180 nM | > 100000 nM
O=C(NC1Cc2ccccc2C1)Oc1ccc2c(c1)CCN2Cc1ccccc1 [Example 44, 1-benzylindolin-5-yl 2-indanylcarbamate] |  | >3100 | much higher |  | 32 nM | > 100000 nM
O=C(NCCc1cccnc1)Oc1ccc2c(c1)CCN2Cc1ccccc1 [Example 120, 1-benzylindolin-5-yl 2-(3-pyridyl)ethylcarbamate] | 24 nM | 350 | much higher | 8500 nM |  | 
O=C(NCc1ccncc1)Oc1ccc2c(c1)CCN2Cc1ccccc1 [Example 103, 1-benzylindolin-5-yl 4-pyridylmethylcarbamate] | 110 nM | 85 |  | 9300 nM |  | 
CC(C)c1ccc(NC(=O)Oc2ccc3c(c2)CCN3CCC(C)(C)C)cc1 [Example 7, 1-(3,3-dimethylbutyl)indolin-5-yl 4-isopropylphenylcarbamate] |  | >110 |  |  | 900 nM | > 100000 nM
CC(C)c1ccc(NC(=O)Oc2ccc3c(c2)CCN3Cc2ccc[nH]2)cc1 [Example 65, 1-[(pyrrol-2-yl)methyl]indolin-5-yl-4-isopropylphenylcarbamate] | 700 nM | >140 |  | > 100000 nM |  | 
O=C(NCc1ccccc1)Oc1ccc2c(c1)CCN2Cc1ccccc1 [Example 15, 1-benzylindolin-5-yl benzylcarbamate] | 13 nM | 140 | much higher | 1800 nM |  | 
COc1ccc(NC(=O)Oc2ccc3c(c2)CCN3Cc2ccccc2)cc1OC [Example 140, 1-benzylindolin-5-yl 3,4-dimethoxyphenylcarbamate] |  | >910 |  |  | 110 nM | > 100000 nM
CC(C)c1ccc(NC(=O)Oc2ccc3c(c2)CCN3Cc2ccc(O)cc2)cc1 [Example 78, 1-(4-hydroxybenzyl)indolin-5-yl 4-isopropylphenylcarbamate] |  | >120 |  |  | 820 nM | > 100000 nM
Cc1ccc(C(C)NC(=O)Oc2ccc3c(c2)CCN3Cc2ccccc2)cc1 (centres unmarked) [Example 97, 1-benzylindolin-5-yl 1-(p-tolyl)ethylcarbamate] |  | >220 |  |  | 450 nM | > 100000 nM
O=C(NCc1ccccc1)Oc1ccc2c(c1)CCN2Cc1ccccn1 [Example 150, 1-(2-pyridylmethyl)indolin-5-yl benzylcarbamate] | 10 nM | 11 |  | 110 nM |  | 
COc1ccc(CCNC(=O)Oc2ccc3c(c2)CCN3Cc2ccccc2)cc1 [Example 32, 1-benzylindolin-5-yl 4-methoxyphenethylcarbamate] |  | >630 |  |  | 160 nM | > 100000 nM
O=C(NCC12CC3CC(CC(C3)C1)C2)Oc1ccc2c(c1)CCN2Cc1ccccc1 [Example 47, 1-benzylindolin-5-yl 1-adamantanemethylcarbamate] |  | >1200 | much higher |  | 82 nM | > 100000 nM
CC(C)c1ccc(NC(=O)Oc2ccc3c(c2)CCN3Cc2ccccc2)cc1 [Example 2, 1-benzylindolin-5-yl 4-isopropylphenylcarbamate] |  | >180 |  |  | 570 nM | > 100000 nM
O=C(NC1CCN(Cc2ccccc2)CC1)Oc1ccc2c(c1)CCN2Cc1ccccc1 [Example 138, 1-benzylindolin-5-yl 1-benzylpiperidin-4-ylcarbamate] |  | >110 |  |  | 900 nM | > 100000 nM
COc1ccc(NC(=O)Oc2ccc3c(c2)CCN3Cc2ccccc2)cc1 [Example 9, 1-benzylindolin-5-yl 4-methoxyphenylcarbamate] |  | >1000 | much higher |  | 98 nM | > 100000 nM
CC(C)c1ccc(NC(=O)Oc2ccc3c(c2)C(C)(C)CN3Cc2ccccc2)cc1 [Example 145, 1-benzyl-3,3-dimethylindolin-5-yl-4-isopropylphenylcarbamate] | 280 nM | >360 |  | > 100000 nM |  | 
CCCN(CCC)C(=O)CC1c2cc(OC(=O)Nc3ccc(C(C)C)cc3)ccc2N(Cc2ccccc2)C1C (centres unmarked) [Example 162, 1-benzyl-3-(di-n-propylaminocarbonylmethyl)-2-methylindolin-5-yl 4-isopropyl phenylcarbamate] |  | >240 |  |  | 410 nM | > 100000 nM
Cc1ccc(CCNC(=O)Oc2ccc3c(c2)CCN3Cc2ccccc2)c(C)c1 [Example 116, 1-benzylindolin-5-yl 2,4-dimethylphenethylcarbamate] |  | >2200 | much higher |  | 45 nM | > 100000 nM
O=C(Nc1ccc2c(c1)CCO2)Oc1ccc2c(c1)CCN2Cc1ccccc1 [Example 14, 1-benzylindolin-5-yl 2,3-dihydro-1-benzofuran-5-ylcarbamate] | 41 nM | 66 |  | 2700 nM |  | 
Cc1ccc(CNC(=O)Oc2ccc3c(c2)CCN3Cc2ccccc2)cc1 [Example 99, 1-benzylindolin-5-yl-4-methylbenzylcarbamate] | 21 nM | 670 | much higher | 14000 nM |  | 
CC(C)c1ccc(NC(=O)Oc2ccc3c(c2)CCN3Cc2cccnc2)cc1 [Example 28, 1-(3-pyridylmethyl)indolin-5-yl 4-isopropylphenylcarbamate] |  | >210 |  |  | 470 nM | > 100000 nM
COc1cccc(CNC(=O)Oc2ccc3c(c2)CCN3Cc2ccccc2)c1 [Example 100, 1-benzylindolin-5-yl 3-methoxybenzylcarbamate] | 7.3 nM | 220 | much higher | 1600 nM |  | 
